These results are taken from PubChem BioAssay (NCI).

Experiment in all cases: NCI tumour cell line growth inhibition, 48 h
In test [1] the test system is UACC-62 melanoma.
In test [2] the test system is UO-31 renal.
For test [3], the system named is LOX IMVI melanoma.
Test [4] deals with SF-539 CNS.
For test [5], the system named is OVCAR-4 ovarian.
Test [6] has as its system T-47D breast.
Test [7] relates to SF-295 CNS.
For test [8], the system named is OVCAR-8 ovarian.
The test system of test [9] is DU-145 prostate.
Test [10] relates to SK-MEL-2 melanoma.

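Growth conditions: 96-well plates. Treatment: test compound, 48 hours, 5 concentrations. Analysis: linear interpolation between bracketing concentrations; unreached endpoints set to highest concentration. At the GI50, growth is halved. TGI: total growth inhibition.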

As to `Cc1nc2cncc(C#Cc3cncc(C(=O)Nc4ccc(CN5CCN(C)CC5)c(C(F)(F)F)c4)c3)c2nc1C`, the GI50 in test [1] was 240 nM; in test [2], 0.256 µM; in [3] it was 208 nM; in test [4], 207 nM; in test [5], 162 nM; in [6], 1.24 µM. The GI50 is 2130 nM in test [7], 0.721 µM in [8], 0.349 µM in [9] and 0.204 µM in test [10]. Also, the TGI turned out to be 1.47 µM in test [1]; 1.06 µM in test [2]; 0.807 µM in test [3]; 1.02 µM in test [4]; 6.74 µM in test [5]; 22.7 µM in [6]. The TGI in test [7] stood at 22.2 µM; in test [8], 8.88 µM; in [9], 6.48 µM; in test [10] it was 0.94 µM.
`O=Nc1c(-c2cccc([N+](=O)[O-])c2)nc2cnccn12`: the TGI in test [1] is 36.8 µM; in [2], 25.2 µM; in [3], 28.5 µM; in test [4] it was 59.1 µM; in test [5], 41.4 µM; in test [6], 49.6 µM. Further, the TGI in [7] was more than 100 µM; in [8], 53.8 µM; in test [9], 40.2 µM; in [10] it was 68.1 µM.
Turning to `O=[N+]([O-])c1cc(O)c(O)cc1-c1cn2ccsc2n1`, the GI50 in test [1] was 54200 nM; in [2], 34.1 µM; in [3], 52000 nM; in test [4] it was 71100 nM; in [5], 69700 nM; in [6] it was more than 100 µM. The GI50 in test [7] is 31200 nM; in [8] it was 52.5 µM; in test [9], 17.2 µM; in [10] it was 57.1 µM. Besides, the TGI in test [1], in test [2], in test [3], in test [4], in test [5] and in [6] was more than 100 µM each time. Moreover, the TGI is 91.3 µM in test [7], more than 100 µM in test [8], more than 100 µM in [9] and more than 100 µM in test [10].
Turning to `CCc1ccc(-c2ccc(=O)n(-c3ccc(S(N)(=O)=O)cc3)n2)cc1`, the GI50 was 840 nM in test [1]; more than 100 µM in [2]; 11700 nM in [3]; 3150 nM in [4]; more than 100000 nM in test [5]; 3.85 µM in test [6]. The GI50 was 992 nM in [7], 11 µM in [8], 21.3 µM in test [9] and 5.04 µM in [10]. The TGI was more than 100 µM in test [1]; more than 100 µM in test [2]; more than 100 µM in [3]; 32.1 µM in test [4]; more than 100 µM in test [5]; more than 100 µM in [6]. In addition, the TGI is 29.4 µM in [7], more than 100 µM in test [8], more than 100 µM in [9] and 38.9 µM in [10].
For the molecule `Nc1c(C(=O)c2cccc(-c3ccc[n+]([O-])c3)c2)cnn1-c1ccc(F)cc1F`, the GI50 in test [1] was more than 25000 nM; in [2] it was more than 25 µM; in test [3], more than 25000 nM; in test [4] it was more than 25000 nM; in [5], more than 25000 nM; in test [6] it was more than 25 µM. The GI50 is more than 25000 nM in test [7], more than 25 µM in test [8], more than 25 µM in test [9] and more than 25 µM in test [10]. For the same molecule, the TGI in test [1], in [2], in [3], in [4], in [5] and in [6] was more than 25 µM in each case. The TGI in test [7], in test [8], in test [9] and in test [10] was more than 25 µM throughout.
Take `CSc1ccc(-c2cc(-c3ccc(NC(=O)CCCN4CCCC4)cc3)nc(-c3ccc(NC(=O)CCCN4CCCC4)cc3)c2)cc1`: the GI50 was 11900 nM in [1]; 15.5 µM in test [2]; 2010 nM in test [3]; 2520 nM in test [4]; 2910 nM in test [5]; 6.52 µM in test [6]. The GI50 in test [7] is 3290 nM; in test [8], 3.3 µM; in test [9] it was 4.1 µM; in test [10], 4.58 µM. Also, the TGI in test [1] stood at 32.4 µM; in [2] it was 37.8 µM; in test [3], 4.18 µM; in [4], 7.54 µM; in test [5], 12.9 µM; in test [6] it was 21.7 µM. The TGI in test [7] was found to be 15.4 µM; in test [8], 13.6 µM; in [9] it was 13.3 µM; in test [10], 19.2 µM.
Take `OCc1cccc(-c2ccc3ncc(-c4nc(NC5CC5)ncc4F)n3c2)c1`: the GI50 in test [1] was 248 nM; in test [2], 0.3 µM; in test [3] it was 118 nM; in test [4] it was 162 nM; in test [5], 342 nM; in [6], 0.274 µM. Besides, the GI50 was 334 nM in test [7], 0.301 µM in test [8], 0.287 µM in [9] and 0.244 µM in test [10]. The TGI was 0.698 µM in [1]; 1 µM in test [2]; 1.21 µM in test [3]; 0.454 µM in test [4]; 1.77 µM in test [5]; 3.93 µM in [6]. Moreover, the TGI in [7] is 1.59 µM; in test [8], more than 100 µM; in test [9], 1.83 µM; in [10] it was 0.671 µM.
